Measured values from ChEMBL document CHEMBL1149886, “Natural and non-natural prenylated chalcones: synthesis, cytotoxicity and anti-oxidative activity” (Bioorg Med Chem, 2008).

Legend:
HeLa = experiment: Cytotoxicity against human HeLa cells by MTT assay; format: functional, cell-based
[1] = Antioxidant activity assessed as trolox equivalent at 0.25 to 1.5 uM by ORAC-fluorescein assay; format: functional
[2] = Antioxidant activity assessed as trolox equivalent at 0.1 to 1 uM by ORAC-fluorescein assay; format: functional
[3] = Antioxidant activity assessed as trolox equivalent at 0.2 to 0.6 uM by ORAC-fluorescein assay; format: functional
[4] = Antioxidant activity assessed as trolox equivalent at 0.1 to 1.5 uM by ORAC-fluorescein assay; format: functional
[5] = Antioxidant activity assessed as trolox equivalent at 0.4 to 1 uM by ORAC-fluorescein assay; format: functional
[6] = Antioxidant activity assessed as trolox equivalent at 0.5 to 2.0 uM by ORAC-fluorescein assay; format: functional
[7] = Antioxidant activity assessed as trolox equivalent at 0.3 to 1 uM by ORAC-fluorescein assay; format: functional

| SMILES | IC50 (HeLa) [µM] | Activity [1] | other results |
| --- | --- | --- | --- |
| COc1cc(O)c(CC=C(C)C)c(O)c1C(=O)/C=C/c1ccc(O)cc1 [XANTHOHUMOL] | 9.4 | 2.3 |  |
| COc1cc(O)c(CC=C(C)C)c(O)c1C(=O)/C=C/c1cc(O)c(O)c(O)c1 | 30.3 |  | Activity [2]: 1.1 |
| COc1cc(O)cc(O)c1C(=O)/C=C/c1ccc(O)cc1 [HELICHRYSETIN] | 5.2 |  | Activity [2]: 4.4 |
| O=c1c(O)c(-c2ccc(O)c(O)c2)oc2cc(O)cc(O)c12 |  |  | Activity [3]: 10.5 |
| COc1cc(O)c(CC=C(C)C)c(O)c1C(=O)/C=C/c1ccc(O)c(O)c1 | 2.5 |  | Activity [2]: 3.1 |
| COc1cc(O)c(C(=O)/C=C/c2ccc(O)cc2)c(O)c1CC=C(C)C [XANTHOGALENOL] | 28.3 | 1.8 |  |
| CC(C)=CCc1c(O)cc(O)c(C(=O)/C=C/c2ccc(O)cc2)c1O [DEMETHYLXANTHOHUMOL] | 16.5 | 3.8 |  |
| COc1cc(O)c(CC=C(C)C)c(O)c1C(=O)/C=C/c1cc(O)cc(O)c1 | 3.2 |  | Activity [2]: 2.9 |
| COc1cc(OC)c(C(=O)/C=C/c2ccc(O)cc2)c(O)c1CC=C(C)C | 11.8 |  | Activity [4]: 3.8 |
| O=C(O)/C=C/c1ccc(O)cc1 |  |  | Activity [5]: 4.51 |
| COc1ccc(/C=C/C(=O)c2c(OC)cc(O)c(CC=C(C)C)c2O)cc1OC | 17.1 |  | Activity [6]: 0.9 |
| COc1cc(O)cc(O)c1C(=O)/C=C/c1ccc(O)c(O)c1 | 14.8 | 3 |  |
| COc1cc(O)c(CC=C(C)C)c(O)c1C(=O)/C=C/c1cccc(O)c1 | 4.8 | 2.7 |  |
| COc1cc(/C=C/C(=O)O)ccc1O |  |  | Activity [7]: 4.47 |
| COc1cc(O)c(C(=O)/C=C/c2ccc(O)cc2)c(OC)c1CC=C(C)C | 25.6 | 1.5 |  |
| COc1cc(O)c(CC=C(C)C)c(O)c1C(=O)/C=C/c1ccccc1O | 5.9 | 2.3 |  |
